From patent US8604047B2, “Method and composition for treating nodulocystic and conglobate acne vulgaris” (Elorac, Inc., priority 2010, dated 2013)

Legend:
Format in all cases: in vivo, human
[1] = Daily oral or topical formulations of 5AR inhibitors in male patients with nodulocystic or conglobate acne
[2] = Topical cream applied to skin of patients with numerous acne papules, pustules, nodules and cysts; settings: 5% dutasteride cream, once daily for 8 weeks, most patients
Protocol: A 5% dutasteride cream is prepared containing water, propylene glycol, bentonite, glycerol stearate, isopropyl myristate and cellulose gum, and applied once daily to the skin of patients with numerous acne papules, pustules, nodules and cysts for 8 weeks. After 8 weeks of such treatment, most patients will have at least a 20% decrease in the number of inflammatory acne lesions.

[3] = Oral administration to patients with conglobate acne (acne conglobata)
Protocol: Capsules containing 0.05 mg by weight of dutasteride are administered twice daily for 6 months to patients with conglobate acne.
A flavored oral solution incorporating a 0.75 mg by weight of dutasteride per every 5 ml of solution is administered to young patients with acne conglobata once daily for 24 weeks.
Tablets containing 0.1 mg by weight of finasteride are administered once daily for 12 weeks to patients with acne conglobata.

[4] = Topical application by patients with nodulocystic acne
Excerpt: Patients with active nodulocystic acne apply 0.05% by weight finasteride prepared in an alcoholic gel containing 6% polyoxyethylene lauryl ether twice daily for 12 weeks.
An aqueous/alcohol solution containing 20% by weight finasteride is applied once daily by patients with nodulocystic acne.

[5] = Oral administration to patients with nodulocystic acne; settings: most patients
Protocol: Tablets containing 0.5 mg by weight of finasteride are administered once daily for 12 weeks to patients with nodulocystic acne.
Caplets containing 50 mg by weight of finasteride are administered once a week for 24 weeks to patients with severe nodulocystic acne.

With `C[C@]12C=CC(=O)N[C@@H]1CC[C@@H]1[C@@H]2CC[C@]2(C)[C@@H](C(=O)Nc3cc(C(F)(F)F)ccc3C(F)(F)F)CC[C@@H]12` [dutasteride] the “improvement of nodulocystic or conglobate acne” value [1] was “dramatic improvement”, the “decrease in the number of inflammatory acne lesions” value [2] was ≥ 20% and the “resolution of inflammatory nodules, cysts and sinus tracts” value ([3]; capsules 0.05 mg dutasteride, oral, twice daily for 6 months) was “resolution of some of their inflammatory nodules, cysts and sinus tracts”. For the same compound, the “resolution of conglobate acne at end of treatment” value ([3]; oral solution 0.75 mg dutasteride per 5 ml, once daily for 24 weeks, young patients, some patients) was “complete resolution of their conglobate acne”.
With `CC(C)(C)NC(=O)[C@H]1CC[C@H]2[C@@H]3CC[C@H]4NC(=O)C=C[C@]4(C)[C@H]3CC[C@]12C` [finasteride] the “improvement of nodulocystic or conglobate acne” value [1] was “dramatic improvement”, the “nodules and cysts versus before starting treatment” value ([4]; 0.05% by weight finasteride alcoholic gel with 6% polyoxyethylene lauryl ether, twice daily for 12 weeks) was “fewer nodules and cysts” and the “improvement in appearance after twelve weeks” value ([4]; aqueous/alcohol solution 20% by weight finasteride, once daily, twelve weeks, many patients) was “dramatic improvement in their appearance”. For the same compound, the “improvement observed after two weeks” value ([4]; aqueous/alcohol solution 20% by weight finasteride, once daily, two weeks, most patients) was “some improvement”, the “reduction in acne nodules and cysts” value ([5]; caplets 50 mg finasteride, once a week for 24 weeks, severe nodulocystic acne) was “marked reduction in acne nodules and cysts” and the “activity of inflammatory acne lesions at end of treatment” value ([5]; tablets 0.5 mg finasteride, once daily for 12 weeks) was “significant decrease in the activity of their inflammatory acne lesions”. The “old acne lesions by end of treatment” value ([3]; tablets 0.1 mg finasteride, oral, once daily for 12 weeks) was “resolved with only minor scarring” and the “new acne lesions by end of treatment” value ([3]; tablets 0.1 mg finasteride, oral, once daily for 12 weeks, most patients) was “very few new acne lesions”.
